Test [1] has as its target gp41 of T-tropic HIV-1 R8 virus (HIV-1 (R8)). Nature of the test: cell-based or functional assay.
In a further test the test system is M-tropic (BAL) HIV-1. The settings on record: for IC50: M-tropic (BAL).
The subject of another test is HIV-1. Format: cell-based.
The subject of test [2] is HIV-1 mediated cell-cell fusion (R8 virus).
The test system of another test is R9 HIV-1 virus. Format: cell-based.
Where [3] appears, read: mediated cell-cell fusion (R8 virus).

Like-named read-outs stand apart in the source and are kept apart here.

Broadly, the IC50 is the concentration at which inhibition is half-maximal. High values mean weaker potency, low ones greater potency. Broadly, the EC50 is the concentration that produces a half-maximal response. A higher EC50 goes with lower potency in that assay.

Molecule “N36 (from UniProt P04578 546-581) (peptide)” showed an IC50, HIV-1 mediated cell-cell fusion (syncytium formation), R8 virus in test [1] of more than 1000 nM.

As to `CC[C@H](C)[C@H](NC(=O)[C@H](CC(C)C)NC(=O)[C@H](CO)NC(=O)[C@H](Cc1c[nH]cn1)NC(=O)[C@@H](NC(=O)[C@H](CC(C)C)NC(=O)[C@H](CO)NC(=O)[C@@H](NC(=O)[C@H](Cc1ccc(O)cc1)NC(=O)[C@H](CC(N)=O)NC(=O)[C@H](CC(N)=O)NC(=O)[C@@H](NC(=O)[C@H](CCC(=O)O)NC(=O)[C@H](CCCNC(=N)N)NC(=O)[C@H](CC(=O)O)NC(=O)[C@H](Cc1c[nH]c2ccccc12)NC(=O)[C@H](CCC(=O)O)NC(=O)[C@H](CCSC)NC(=O)[C@@H]1Cc2c([nH]c3ccccc23)C(C(=O)NCCCC[C@H](NC(=O)CCNC(=O)C2N[C@H](C(=O)N[C@@H](CCSC)C(=O)N[C@@H](CCC(=O)O)C(=O)N[C@@H](Cc3c[nH]c4ccccc34)C(=O)N[C@@H](CC(=O)O)C(=O)N[C@@H](CCCNC(=N)N)C(=O)N[C@@H](CCC(=O)O)C(=O)N[C@H](C(=O)N[C@@H](CC(N)=O)C(=O)N[C@@H](CC(N)=O)C(=O)N[C@@H](Cc3ccc(O)cc3)C(=O)N[C@H](C(=O)N[C@@H](CO)C(=O)N[C@@H](CC(C)C)C(=O)N[C@H](C(=O)N[C@@H](Cc3c[nH]cn3)C(=O)N[C@@H](CO)C(=O)N[C@@H](CC(C)C)C(=O)N[C@H](C(=O)N[C@@H](CCC(=O)O)C(=O)N[C@@H](CCC(=O)O)C(=O)N[C@@H](CO)C(=O)N[C@@H](CCC(N)=O)C(=O)N[C@@H](CC(N)=O)C(=O)N[C@@H](CCC(N)=O)C(=O)N[C@@H](CCC(N)=O)C(=O)N[C@@H](CCC(=O)O)C(=O)N[C@@H](CCCCN)C(=O)N[C@@H](CC(N)=O)C(=O)N[C@@H](CCC(=O)O)C(=O)N[C@@H](CCC(N)=O)C(=O)N[C@@H](CCC(=O)O)C(=O)N[C@@H](CC(C)C)C(=O)N[C@@H](CC(C)C)C(=O)O)[C@@H](C)CC)[C@@H](C)CC)[C@@H](C)O)[C@@H](C)CC)Cc3c2[nH]c2ccccc32)C(=O)N[C@@H](CO)C(=O)N[C@@H](CO)C(=O)N[C@@H](C)C(N)=O)N1)[C@@H](C)CC)[C@@H](C)O)[C@@H](C)CC)C(=O)N[C@@H](CCC(=O)O)C(=O)N[C@@H](CCC(=O)O)C(=O)N[C@@H](CO)C(=O)N[C@@H](CCC(N)=O)C(=O)N[C@@H](CC(N)=O)C(=O)N[C@@H](CCC(N)=O)C(=O)N[C@@H](CCC(N)=O)C(=O)N[C@@H](CCC(=O)O)C(=O)N[C@@H](CCCCN)C(=O)N[C@@H](CC(N)=O)C(=O)N[C@@H](CCC(=O)O)C(=O)N[C@@H](CCC(N)=O)C(=O)N[C@@H](CCC(=O)O)C(=O)N[C@@H](CC(C)C)C(=O)N[C@@H](CC(C)C)C(=O)O` (stereo partly drawn) [Compound 2α-C34], the “fold increase of potency over monomer, R8 virus” value in the test with T-tropic (R8) HIV-1 was 42 fold. For the same molecule, in the test with M-tropic (BAL) HIV-1, the “fold increase of potency over monomer, BAL virus” value is given as 45 fold and half-maximal inhibition (IC50) was put at 0.09 nM. Also, in the test on HIV-1, the “Neutralization (%)” value was less than 5%. For the same molecule, in test [2], the “fold increase over monomer, cell-cell fusion” value is 74 fold. In test [2] (setting [3]), this molecule returned an EC50 of 0.47 nM and an IC50 of 0.47 nM.

For `CC[C@H](C)[C@H](NC(=O)CNC(=O)[C@H](Cc1c[nH]c2ccccc12)NC(=O)[C@@H](NC(=O)[C@@H](NC(=O)[C@H](CC(C)C)NC(=O)[C@H](CCC(N)=O)NC(=O)[C@H](CC(C)C)NC(=O)[C@H](CC(C)C)NC(=O)[C@H](Cc1c[nH]cn1)NC(=O)[C@H](CCC(N)=O)NC(=O)[C@H](CCC(N)=O)NC(=O)[C@H](C)NC(=O)[C@H](CCC(=O)O)NC(=O)[C@@H](NC(=O)[C@H](C)NC(=O)[C@H](CCCNC(=N)N)NC(=O)[C@H](CC(C)C)NC(=O)[C@H](CC(C)C)NC(=O)[C@H](CC(N)=O)NC(=O)[C@H](CC(N)=O)NC(=O)[C@H](CCC(N)=O)NC(=O)[C@H](CCC(N)=O)NC(=O)[C@H](CCC(N)=O)NC(=O)[C@@H](NC(=O)[C@@H](NC(=O)CNC(=O)[C@H](CO)NC(=O)[C@@H]1CSC(C(=O)NCCCC[C@H](NC(=O)CCNC(=O)C2N[C@H](C(=O)N[C@@H](CO)C(=O)NCC(=O)N[C@H](C(=O)N[C@H](C(=O)N[C@@H](CCC(N)=O)C(=O)N[C@@H](CCC(N)=O)C(=O)N[C@@H](CCC(N)=O)C(=O)N[C@@H](CC(N)=O)C(=O)N[C@@H](CC(N)=O)C(=O)N[C@@H](CC(C)C)C(=O)N[C@@H](CC(C)C)C(=O)N[C@@H](CCCNC(=N)N)C(=O)N[C@@H](C)C(=O)N[C@H](C(=O)N[C@@H](CCC(=O)O)C(=O)N[C@@H](C)C(=O)N[C@@H](CCC(N)=O)C(=O)N[C@@H](CCC(N)=O)C(=O)N[C@@H](Cc3c[nH]cn3)C(=O)N[C@@H](CC(C)C)C(=O)N[C@@H](CC(C)C)C(=O)N[C@@H](CCC(N)=O)C(=O)N[C@@H](CC(C)C)C(=O)N[C@H](C(=O)N[C@H](C(=O)N[C@@H](Cc3c[nH]c4ccccc34)C(=O)NCC(=O)N[C@H](C(=O)N[C@@H](CCCCN)C(=O)N[C@@H](CCC(N)=O)C(=O)N[C@@H](CC(C)C)C(=O)N[C@@H](CCC(N)=O)C(=O)N[C@@H](C)C(=O)N[C@@H](CCCNC(=N)N)C(=O)N[C@H](C(=O)N[C@@H](CC(C)C)C(=O)O)[C@@H](C)CC)[C@@H](C)CC)C(C)C)[C@@H](C)O)[C@@H](C)CC)C(C)C)[C@@H](C)CC)CS2)C(=O)N[C@@H](CCCCNC(=O)CNC(=O)C2N[C@H](C(=O)N[C@@H](CO)C(=O)NCC(=O)N[C@H](C(=O)N[C@H](C(=O)N[C@@H](CCC(N)=O)C(=O)N[C@@H](CCC(N)=O)C(=O)N[C@@H](CCC(N)=O)C(=O)N[C@@H](CC(N)=O)C(=O)N[C@@H](CC(N)=O)C(=O)N[C@@H](CC(C)C)C(=O)N[C@@H](CC(C)C)C(=O)N[C@@H](CCCNC(=N)N)C(=O)N[C@@H](C)C(=O)N[C@H](C(=O)N[C@@H](CCC(=O)O)C(=O)N[C@@H](C)C(=O)N[C@@H](CCC(N)=O)C(=O)N[C@@H](CCC(N)=O)C(=O)N[C@@H](Cc3c[nH]cn3)C(=O)N[C@@H](CC(C)C)C(=O)N[C@@H](CC(C)C)C(=O)N[C@@H](CCC(N)=O)C(=O)N[C@@H](CC(C)C)C(=O)N[C@H](C(=O)N[C@H](C(=O)N[C@@H](Cc3c[nH]c4ccccc34)C(=O)NCC(=O)N[C@H](C(=O)N[C@@H](CCCCN)C(=O)N[C@@H](CCC(N)=O)C(=O)N[C@@H](CC(C)C)C(=O)N[C@@H](CCC(N)=O)C(=O)N[C@@H](C)C(=O)N[C@@H](CCCNC(=N)N)C(=O)N[C@H](C(=O)N[C@@H](CC(C)C)C(=O)O)[C@@H](C)CC)[C@@H](C)CC)C(C)C)[C@@H](C)O)[C@@H](C)CC)C(C)C)[C@@H](C)CC)CS2)C(=O)N[C@@H](CO)C(=O)N[C@@H](CO)C(=O)N[C@@H](C)C(N)=O)N1)[C@@H](C)CC)C(C)C)[C@@H](C)CC)[C@@H](C)O)C(C)C)C(=O)N[C@@H](CCCCN)C(=O)N[C@@H](CCC(N)=O)C(=O)N[C@@H](CC(C)C)C(=O)N[C@@H](CCC(N)=O)C(=O)N[C@@H](C)C(=O)N[C@@H](CCCNC(=N)N)C(=O)N[C@H](C(=O)N[C@@H](CC(C)C)C(=O)O)[C@@H](C)CC` (stereo partly drawn) [Compound 3α-N36], the half-inhibitory concentration (IC50) was 55.4 nM in the test with T-tropic (R8) HIV-1 (T-tropic (R8)), 7.2 nM in the test on M-tropic (BAL) HIV-1 and 39 nM in test [2] (setting [3]). The “percentage of inhibition of cell infection” value with R9 HIV-1 virus (6 μM) is reported as “around 10%”; with R9 HIV-1 virus (200 μM), approximately 100%.
